Broadly, the GI50 is the concentration giving 50% growth inhibition. As usually defined, the EC50 is the concentration needed to bring the measured effect to its halfway point.

What all share (format): cell-based
The test system of experiment [1] is human breast cancer cell line T-47D. The experiment is described as follows: Inhibition of cell proliferation (GI50), T47D. The note with it: Homo sapiens; T47D cells, 48 h, CellTiter-Glo. In outline:
(§1)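 Viability measured as CellTiter-Glo luminescence after 48 h compound treatment (1 nM–10 μM final) at 37 °C, 5% CO2, seeding 4.4×10^4 cells/mL. GI50 taken at 50% of growth above a 0.5 h starting-cell baseline, relative to untreated maximal proliferation.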
(In general: Cellular ATP, detected with luciferase, serves as a proxy for viable cell number.)

Experiment [2] concerns human cancer cell line H1299. The experiment is described as follows: Caspase cascade activation (EC50), H1299. The note with it: NCI-H1299, H1299 cells, read-out: caspase potency (EC50) H1299. The method, boiled down: (§2)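 Cells were resuspended at 0.65×10^6 cells/mL in medium + 10% FCS and exposed to test compound at 0.016 to 10 μM final for 48 h at 37 °C. Caspase activity was then read as fluorescence (ex 485/em 530 nm) from DEVD-R110 substrate with lysolecithin in PIPES pH 7.2, 3 h at room temperature.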

Experiment [3] concerns murine leukemia cell line P388. The experiment is described as follows: Inhibition of cell proliferation (GI50), P388. As to conditions: Mus musculus; P388 cells. On the procedure:
(§3) Human breast cancer cell lines T-47D, human hepatocellular carcinoma cell line SNU398, human colon carcinoma cell line HCT116, human lung cancer cell line H1299, human leukemia cell line K562, human lymphoma cell line Raji, human B cell lymphoblastoid cell line Ramos, and human Burkitt's lymphoma cell line Namalwa were grown and harvested as in Example 100. An aliquot of […] of cells (4.4×10^4 cells/mL) was added to a well of a 96-well microtiter plate containing 5 μL of a 10% DMSO in RPMI-1640 media solution containing 10 nM to 100 μM of 3-(2-chlorophenyl)-6-(3,4-methylenedioxyphenyl)-7H-[1,2,4]triazolo[3,4-b][1,3,4]thiadiazine (1 nM to 10 μM final). An aliquot of 45 μL of cells was added to a well of a 96-well microtiter plate containing 5 μL of a 10% DMSO in RPMI-1640 media solution without compound as the control sample for maximal cell proliferation (LMax). The samples were mixed by agitation and then incubated at 37° C. for 48 h in a 5% CO2-95% humidity incubator. After incubation, the samples were removed from the incubator and 25 μL of CellTiter-Glo™ reagent (Promega) was added. The samples were mixed by agitation and incubated at room temperature for 10-15 min. Plates were then read using a luminescent plate reader (Model SPECTRAfluor Plus, Tecan) to give Ltest values.
(§4) The samples were mixed by agitation and then incubated at 37° C. for 0.5 h in a 5% CO2-95% humidity incubator. After incubation, the samples were removed from the incubator and 25 μL of CellTiter-Glo™ reagent (Promega) was added. The samples were mixed by agitation and incubated at […] 10-15 min at room temperature in a 5% CO2-95% humidity incubator. Fluorescence was read as above, (LStart) defining luminescence for initial cell number used as baseline in GI50 determinations.
(§5) Calculation: GI50 (dose for 50% inhibition of cell proliferation) is the concentration where [(Ltest−LStart)/(LMax−LStart)]=0.5.
(§6) Several compounds were tested in human sarcoma cell line MES-SA and multi-drug resistant (MDR) human sarcoma cell line MES-SA/ADR, murine leukemia cell line P388 and multi-drug resistant (MDR) murine leukemia cell line P388/ADR, and the data are summarized in Table III.

Experiment [4] relates to human Burkitt's lymphoma cell line Namalwa. Nature of the experiment: Caspase cascade activation (EC50), Namalwa. As to conditions: Homo sapiens, Burkitts lymphoma cell; Namalwa cells; caspase cascade activation; read-out: caspase potency (EC50) Namalwa. In outline: as §2
The test system of experiment [5] is human lung cancer cell line H1299. The experiment is described as follows: Inhibition of cell proliferation (GI50), H1299. As to conditions: NCI-H1299, H1299 cells, 48 h, CellTiter-Glo. On the procedure:
as §3, §4, §5

In experiment [6] the test system is human colon carcinoma cell line HCT116. Nature of the experiment: Inhibition of cell proliferation (GI50), HCT116. The note with it: Homo sapiens; HCT 116 cells, 48 h, CellTiter-Glo. The method, boiled down: as §1
Experiment [7] deals with human hepatocellular carcinoma cell line SNU398. The experiment is described as follows: Inhibition of cell proliferation (GI50), SNU398. As to conditions: Homo sapiens; SNU 398 cells, 48 h, CellTiter-Glo. In outline: as §1
Experiment [8] deals with human sarcoma cell line MES-SA. Nature of the experiment: Inhibition of cell proliferation (GI50), MES-SA. The note with it: MES-SA cells. Here is the method:
as §3, §4, §5, §6

The test system of experiment [9] is human B cell lymphoblastoid cell line Ramos. Nature of the experiment: Caspase cascade activation (EC50), Ramos. The note with it: Homo sapiens, RAMOS cells, read-out: caspase potency (EC50) RAMOS. The method, boiled down:
as §2

The subject of experiment [10] is human lymphoma cell line Raji. Nature of the experiment: Inhibition of cell proliferation (GI50), Raji. The note with it: Homo sapiens; Raji cells, 48 h, CellTiter-Glo. The method, boiled down: as §1
Experiment [11] relates to multi-drug resistant (MDR) murine leukemia cell line P388/ADR. Nature of the experiment: Inhibition of cell proliferation (GI50), P388/ADR. As to conditions: Mus musculus; P388/ADR multi-drug resistant cells. On the procedure: as §3, §4, §5, §6
Experiment [12] deals with human colon carcinoma cell line HCT116. Nature of the experiment: Caspase cascade activation (EC50), HCT116. The note with it: Homo sapiens, HCT-116; HCT116 cells; caspase cascade activation; read-out: caspase potency (EC50) HCT116. In outline: as §2
Experiment [13] concerns human lymphoma cell line Raji. Nature of the experiment: Caspase cascade activation (EC50), Raji. As to conditions: Homo sapiens, RAJI cells, read-out: caspase potency (EC50) RAJI. The method, boiled down:
as §2

Experiment [14] deals with human leukemia cell line K562. The experiment is described as follows: Inhibition of cell proliferation (GI50), K562. As to conditions: Homo sapiens; K562 cells, 48 h, CellTiter-Glo. The method, boiled down:
as §1

The test system of experiment [15] is human Burkitt's lymphoma cell line Namalwa. Nature of the experiment: Inhibition of cell proliferation (GI50), Namalwa. As to conditions: Homo sapiens, Burkitts lymphoma cell; Namalwa cells, 48 h, CellTiter-Glo. In outline:
as §1

Experiment [16] relates to human B cell lymphoblastoid cell line Ramos. Nature of the experiment: Inhibition of cell proliferation (GI50), Ramos. As to conditions: Homo sapiens; Ramos cells, 48 h, CellTiter-Glo. The method, boiled down:
as §1

Experiment [17] concerns human breast cancer cell line T-47D. The experiment is described as follows: Caspase cascade activation (EC50), T-47D. The note with it: Homo sapiens; T47D cells; caspase cascade activation; read-out: caspase potency (EC50) T47D. The method, boiled down: as §2
Experiment [18] deals with human hepatocellular carcinoma cell line SNU398. Nature of the experiment: Caspase cascade activation (EC50), SNU398. As to conditions: Homo sapiens, SNU-398; SNU398 cells; caspase cascade activation; read-out: caspase potency (EC50) SNU398. The method, boiled down: as §2
In experiment [19] the test system is multi-drug resistant (MDR) human sarcoma cell line MES-SA/ADR. Nature of the experiment: Inhibition of cell proliferation (GI50), MES-SA/ADR. The note with it: MES-SA/ADR multi-drug resistant cells. On the procedure:
as §3, §4, §5, §6

Consider `COc1cc(-c2nnc3n2N=C(c2ccc4c(c2)OCO4)CS3)cc(OC)c1OC` [Example M1, 3-(3,4,5-Trimethoxyphenyl)-6-(3,4-methylenedioxyphenyl)-7H-[1,2,4]triazolo[3,4-b][1,3,4]thiadiazine], for which the GI50 worked out at 22 nM in experiment [1]; 7 nM in [3]; 166 nM in experiment [5]; 25 nM in experiment [6]; 12 nM in experiment [7]; 17 nM in experiment [8]. For the same compound, the 50% growth inhibitory concentration (GI50) in experiment [10] amounted to 41 nM; in [11], 10 nM; in experiment [14] it was 18 nM; in experiment [15], 13 nM; in experiment [16], 16 nM; in experiment [19] it was 25 nM. For the same compound, the EC50 in experiment [2] was found to be 68 nM; in [4], 31 nM; in experiment [9], 13 nM; in experiment [12], 40 nM; in experiment [13], 19 nM; in experiment [17], 61 nM. The EC50 in experiment [18] came to 28 nM.
Regarding `COc1ccccc1-c1nnc2n1N=C(c1ccc3c(c1)OCO3)CS2` [V, 3-(2-Methoxyphenyl)-6-(3,4-methylenedioxyphenyl)-7H-[1,2,4]triazolo[3,4-b][1,3,4]thiadiazine], the GI50 worked out at 31 nM in [3], 83 nM in experiment [8], 43 nM in experiment [11] and 123 nM in experiment [19]. For the same compound, the concentration giving a half-maximal response (EC50) in experiment [4] was found to be 61 nM; in experiment [9] it was 75 nM; in [12], 111 nM; in [13], 81 nM; in [17], 62 nM; in [18], 68 nM.
`COc1cc(OC)cc(-c2nnc3n2N=C(c2ccc4c(c2)OCO4)CS3)c1` [Example 2, 3-(3,5-Dimethoxyphenyl)-6-(3,4-methylenedioxyphenyl)-7H-[1,2,4]triazolo[3,4-b][1,3,4]thiadiazine]: the GI50 came to 20 nM in experiment [3]; 190 nM in experiment [6]; 59 nM in [8]; 53 nM in experiment [10]; 29 nM in experiment [11]; 27 nM in experiment [14]. Further, the GI50 in experiment [15] stood at 20 nM; in [16] it was 11 nM; in [19], 154 nM. In addition, the EC50 in experiment [4] worked out at 117 nM; in experiment [9], 89 nM; in experiment [12], 139 nM; in experiment [13], 112 nM; in experiment [17], 508 nM; in experiment [18], 141 nM.
For the compound `COc1cc(-c2nnc3n2N=C(c2ccc4c(c2)OCO4)CS3)cc(Cl)c1OC` [Example 4, 3-(3-Chloro-4,5-dimethoxyphenyl)-6-(3,4-methylenedioxyphenyl)-7H-[1,2,4]triazolo[3,4-b][1,3,4]thiadiazine], the GI50 came out at 12 nM in experiment [3]; 150 nM in experiment [6]; 30 nM in experiment [8]; 26 nM in experiment [10]; 16 nM in experiment [11]; 24 nM in experiment [14]. Besides, the GI50 amounted to 31 nM in experiment [15], 12 nM in experiment [16] and 28 nM in experiment [19]. Further, the EC50 in [4] amounted to 36 nM; in experiment [9] it was 31 nM; in experiment [12] it was 61 nM; in experiment [13] it was 32 nM; in experiment [17], 168 nM; in [18] it was 47 nM.
On to `COc1ccc(C2=Nn3c(nnc3-c3cc(OC)c(OC)c(OC)c3)SC2)cc1` [Example A2, 3-(3,4,5-Trimethoxyphenyl)-6-(4-methoxyphenyl)-7H-[1,2,4]triazolo[3,4-b][1,3,4]thiadiazine], for which the GI50 in experiment [3] was found to be 23 nM; in experiment [8] it was 44 nM; in experiment [11] it was 25 nM; in [19], 63 nM. For the same compound, the 50% effective concentration (EC50) in [4] worked out at 36 nM; in experiment [9], 32 nM; in experiment [12], 154 nM; in experiment [13] it was 49 nM; in experiment [17] it was 517 nM; in experiment [18], 36 nM.
`COc1ccc(C2=Nn3c(nnc3-c3cccc(OC)c3)SC2)cc1` [Example X, 3-(3-methoxyphenyl)-6-(4-methoxyphenyl)-7H-[1,2,4]triazolo[3,4-b][1,3,4]thiadiazine]: the GI50 is 400 nM in [1]; 57 nM in experiment [3]; 157 nM in experiment [6]; 55 nM in [7]; 418 nM in experiment [8]; 62 nM in [10]. For the same compound, the GI50 in experiment [11] is 77 nM; in experiment [14], 32 nM; in experiment [15], 119 nM; in experiment [16], 14 nM; in experiment [19], 196 nM. Moreover, the EC50 in experiment [2] worked out at 680 nM; in experiment [4], 66 nM; in experiment [9] it was 67 nM; in experiment [12], 119 nM; in [13], 83 nM; in [17], 523 nM. For the same compound, in experiment [18], the 50% effective concentration (EC50) stood at 67 nM.
